According to ChEMBL document CHEMBL6134864, “Discovery of FLT3-ITD Inhibitor Clifutinib: A Novel Biphenylacetylene Urea Derivative in Clinical Trials for the Treatment of Relapsed/Refractory FLT3-ITD+ Acute Myeloid Leukemia” (J Med Chem, 2025):
Active and inactive are the calls of the source. The rule behind the calls is not given here.

Key:
[1] = Cmax in monkey plasma at 5 mg/kg, po measured up to 24 hrs by LC-MS/MS analysis; format: ADME, organism-based, Macaca mulatta; conditions: rhesus monkey
[2] = Volume of distribution at steady state in dog plasma at 1 mg/kg, iv measured up to 24 hrs by LC-MS/MS analysis; format: ADME, organism-based, Canis lupus familiaris; conditions: read-out: Vdss
[3] = AUC (0 to t) in NOD/SCID mouse plasma xenografted with human MV4-11 cells at 4.5 mg/kg, po measured up to 24 hrs by LC-MS/MS analysis; format: ADME, organism-based
[4] = Cmax in mouse plasma at 10 mg/kg, po measured up to 24 hrs by LC-MS/MS analysis; format: ADME, organism-based
[5] = target: Cytochrome P450 1A2 (Homo sapiens, UniProt P05177); test: Inhibition of CYP1A2 in human liver microsomes by UPLC-MS/MS analysis; format: ADME, Microsome
[6] = Tmax in monkey plasma at 1 mg/kg, iv measured up to 24 hrs by LC-MS/MS analysis; format: ADME, organism-based, Macaca mulatta; conditions: rhesus monkey
[7] = tested on: Receptor-type tyrosine-protein kinase FLT3 (Homo sapiens), P36888 [UNDEFINED MUTATION]; test: Inhibition of FLT3 in human MV4-11 cells harbouring FLT3-ITD mutant assessed as inhibition of STAT5 phosphorylation level measured after 2 hrs by Western blot analysis; format: cell-based; conditions: dose 1-1000 nM
[8] = Tmax in mouse plasma at 2 mg/kg, iv measured up to 24 hrs by LC-MS/MS analysis; format: ADME, organism-based
[9] = Half life in monkey plasma at 5 mg/kg, po measured up to 24 hrs by LC-MS/MS analysis; format: ADME, organism-based, Macaca mulatta; conditions: rhesus monkey
[10] = Half life in mouse plasma at 10 mg/kg, po measured up to 24 hrs by LC-MS/MS analysis; format: ADME, organism-based
[11] = Antitumor activity against human […] cells harbouring FLT3-ITD xenografted in NOD/SCID mouse model assessed as tumor regression rate at 1.5 to 4.5 mg/kg/day, po administered for 21 days and measured for 31 days post dose by caliper analysis relative to control; format: functional, MV4-11; conditions: dose lower […], dose upper 4.5 mg/kg/day, time 52 day
[12] = tested on: MOLM-13; test: cells; conditions: Homo sapiens, MOLM-13, 72 h
Description: Antiproliferative activity against human MOLM-13 cells assessed as inhibition of cell growth incubated for 72 hrs by celltiter-glo luminescent cell viability assay

[13] = tested on: BaF3; test: Antiproliferative activity against mouse BaF3 cells harbouring FLT3-ITD-N676D mutant assessed as inhibition of cell growth incubated for 72 hrs by celltiter-glo luminescent cell viability assay; format: functional, cell-based; conditions: BaF3, 72 h
[14] = target: Mast/stem cell growth factor receptor Kit (Homo sapiens, UniProt P10721, T670I/V559D); test: Inhibition of human KIT V559D/T670I mutant by biochemical kinase binding assay
[15] = target: hERG (KCNH2) (Homo sapiens, UniProt Q12809); test: Inhibition of human ERG expressed in CHO cells at 30 uM by manual patch clamp assay relative to control; format: toxicity, cell-based; conditions: CHO cells expressing human ERG
[16] = tested on: RS4-11; test: cells; conditions: Homo sapiens, RS4-11, 72 h
Description: Antiproliferative activity against human RS4;11 cells assessed as inhibition of cell growth incubated for 72 hrs by celltiter-glo luminescent cell viability assay

[17] = Half life in NOD/SCID mouse plasma xenografted with human MV4-11 cells at […], po measured up to 24 hrs by LC-MS/MS analysis; format: ADME, organism-based; conditions: dose 1.5 mg/kg
[18] = Half life in mouse plasma at 2 mg/kg, iv measured up to 24 hrs by LC-MS/MS analysis; format: ADME, organism-based
[19] = tested on: MV4-11; test: Induction of apoptosis in human MV4-11 cells harbouring FLT3-ITD mutant measured after 48 to 72 hrs by annexin V and PI staining based flow cytometry analysis; format: functional, cell-based; conditions: dose 1-100 nM, time 48-72 hrs
[20] = AUC last in mouse plasma at 10 mg/kg, po measured up to 24 hrs by LC-MS/MS analysis; format: ADME, organism-based
[21] = tested on: Receptor-type tyrosine-protein kinase FLT3 (Homo sapiens), P36888 [UNDEFINED MUTATION]; test: Inhibition of FLT3 in human MV4-11 cells harbouring FLT3-ITD mutant assessed as inhibition of ERK phosphorylation level measured after 2 hrs by Western blot analysis; format: cell-based; conditions: dose 1-1000 nM
[22] = tested on: BaF3; test: Antiproliferative activity against mouse BaF3 cells harbouring FLT3-ITD-D835I mutant assessed as inhibition of cell growth incubated for 72 hrs by celltiter-glo luminescent cell viability assay; format: functional, cell-based; conditions: BaF3, 72 h
[23] = target: Proto-oncogene tyrosine-protein kinase receptor Ret (Homo sapiens, UniProt P07949, G691S); test: Inhibition of human RET G691S mutant by biochemical kinase binding assay
[24] = tested on: HL-60; test: cells; conditions: Homo sapiens, HL-60, 72 h
Description: Antiproliferative activity against human HL-60 cells assessed as inhibition of cell growth incubated for 72 hrs by celltiter-glo luminescent cell viability assay

[25] = Clearance in rat plasma at 5 mg/kg, po measured up to 24 hrs by LC-MS/MS analysis; format: ADME, organism-based
[26] = Volume of distribution at steady state in mouse plasma at 2 mg/kg, iv measured up to 24 hrs by LC-MS/MS analysis; format: ADME, organism-based; conditions: read-out: Vdss
[27] = Cmax in rat plasma at 5 mg/kg, po measured up to 24 hrs by LC-MS/MS analysis; format: ADME, organism-based
[28] = Oral bioavailability in dog plasma at 5 mg/kg measured up to 24 hrs by LC-MS/MS analysis; format: ADME, organism-based, Canis lupus familiaris
[29] = tested on: CAKI-1; test: cells; conditions: Homo sapiens, CAKI-1, 72 h
Description: Antiproliferative activity against human CAKI-1 cells assessed as inhibition of cell growth incubated for 72 hrs by celltiter-glo luminescent cell viability assay

[30] = tested on: BaF3; test: cells; conditions: Mus musculus, BaF3, 72 h
[31] = AUC (0 to t) in NOD/SCID mouse tumor xenografted with human MV4-11 cells at […], po measured up to 24 hrs by LC-MS/MS analysis; format: ADME, organism-based, Neoplasm; conditions: dose 1.5 mg/kg
[32] = Tmax in NOD/SCID mouse tumor xenografted with human MV4-11 cells at […], po measured up to 24 hrs by LC-MS/MS analysis; format: ADME, organism-based, Neoplasm; conditions: dose 1.5 mg/kg
[33] = tested on: U-251; test: cells; conditions: Homo sapiens, U-251, 72 h
Description: Antiproliferative activity against human U-251 cells assessed as inhibition of cell growth incubated for 72 hrs by celltiter-glo luminescent cell viability assay

[34] = tested on: Receptor-type tyrosine-protein kinase FLT3 (Homo sapiens), P36888 [UNDEFINED MUTATION]; test: Inhibition of FLT3 in human MV4-11 cells harbouring FLT3-ITD mutant assessed as effect on ERK protein level at 1 to 1000 nM measured after 2 hrs by Western blot analysis; format: cell-based; conditions: dose 1-1000 nM
[35] = tested on: BaF3; test: cells; conditions: Mus musculus, BaF3, 72 h; remark: listed apart in the source
[36] = AUC last in mouse plasma at 2 mg/kg, iv measured up to 24 hrs by LC-MS/MS analysis; format: ADME, organism-based
[37] = Cmax in NOD/SCID mouse plasma xenografted with human MV4-11 cells at 4.5 mg/kg, po measured up to 24 hrs by LC-MS/MS analysis; format: ADME, organism-based
[38] = tested on: MOLT-4; test: cells; conditions: Homo sapiens, MOLT-4, 72 h
Description: Antiproliferative activity against human MOLT-4 cells assessed as inhibition of cell growth incubated for 72 hrs by celltiter-glo luminescent cell viability assay

[39] = Cmax in NOD/SCID mouse tumor xenografted with human MV4-11 cells at […], po measured up to 24 hrs by LC-MS/MS analysis; format: ADME, organism-based, Neoplasm; conditions: dose 1.5 mg/kg
[40] = tested on: A2780; test: cells; conditions: Homo sapiens, A2780, 72 h
Description: Antiproliferative activity against human A2780 cells assessed as inhibition of cell growth incubated for 72 hrs by celltiter-glo luminescent cell viability assay

[41] = AUC last in monkey plasma at 5 mg/kg, po measured up to 24 hrs by LC-MS/MS analysis; format: ADME, organism-based, Macaca mulatta; conditions: rhesus monkey, in vivo

Chain of Receptor-type tyrosine-protein kinase FLT3 (Homo sapiens), P36888 [UNDEFINED MUTATION] (P36888 whole entry, looked up, stated change not applied): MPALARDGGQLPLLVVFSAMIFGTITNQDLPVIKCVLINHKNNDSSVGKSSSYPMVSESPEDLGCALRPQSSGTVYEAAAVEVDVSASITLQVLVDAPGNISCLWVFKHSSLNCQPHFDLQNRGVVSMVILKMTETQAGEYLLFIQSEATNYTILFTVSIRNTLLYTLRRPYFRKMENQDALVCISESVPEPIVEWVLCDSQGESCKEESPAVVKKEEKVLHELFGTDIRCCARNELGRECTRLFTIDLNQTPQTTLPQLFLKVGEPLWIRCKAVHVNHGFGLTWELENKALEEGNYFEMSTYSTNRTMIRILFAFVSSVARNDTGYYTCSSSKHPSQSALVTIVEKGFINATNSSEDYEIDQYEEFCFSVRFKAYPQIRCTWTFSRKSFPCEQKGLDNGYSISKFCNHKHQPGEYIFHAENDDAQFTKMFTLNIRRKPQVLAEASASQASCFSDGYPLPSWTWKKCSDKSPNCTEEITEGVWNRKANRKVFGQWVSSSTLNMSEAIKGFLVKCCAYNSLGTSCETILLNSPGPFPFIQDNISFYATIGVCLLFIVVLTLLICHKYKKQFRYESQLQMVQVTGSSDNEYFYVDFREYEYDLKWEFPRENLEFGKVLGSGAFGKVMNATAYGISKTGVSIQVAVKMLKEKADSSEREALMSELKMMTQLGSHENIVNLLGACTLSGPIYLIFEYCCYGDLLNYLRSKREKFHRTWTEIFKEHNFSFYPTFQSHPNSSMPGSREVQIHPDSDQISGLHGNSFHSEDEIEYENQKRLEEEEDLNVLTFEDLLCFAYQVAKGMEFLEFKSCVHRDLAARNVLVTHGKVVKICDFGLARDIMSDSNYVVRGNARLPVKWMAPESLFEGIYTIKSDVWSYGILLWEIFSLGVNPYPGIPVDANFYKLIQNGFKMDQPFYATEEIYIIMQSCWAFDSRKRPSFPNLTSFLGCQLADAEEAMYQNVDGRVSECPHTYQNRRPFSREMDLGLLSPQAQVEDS
Chain of Mast/stem cell growth factor receptor Kit (P10721 26-976 V559D/T670I limits assumed): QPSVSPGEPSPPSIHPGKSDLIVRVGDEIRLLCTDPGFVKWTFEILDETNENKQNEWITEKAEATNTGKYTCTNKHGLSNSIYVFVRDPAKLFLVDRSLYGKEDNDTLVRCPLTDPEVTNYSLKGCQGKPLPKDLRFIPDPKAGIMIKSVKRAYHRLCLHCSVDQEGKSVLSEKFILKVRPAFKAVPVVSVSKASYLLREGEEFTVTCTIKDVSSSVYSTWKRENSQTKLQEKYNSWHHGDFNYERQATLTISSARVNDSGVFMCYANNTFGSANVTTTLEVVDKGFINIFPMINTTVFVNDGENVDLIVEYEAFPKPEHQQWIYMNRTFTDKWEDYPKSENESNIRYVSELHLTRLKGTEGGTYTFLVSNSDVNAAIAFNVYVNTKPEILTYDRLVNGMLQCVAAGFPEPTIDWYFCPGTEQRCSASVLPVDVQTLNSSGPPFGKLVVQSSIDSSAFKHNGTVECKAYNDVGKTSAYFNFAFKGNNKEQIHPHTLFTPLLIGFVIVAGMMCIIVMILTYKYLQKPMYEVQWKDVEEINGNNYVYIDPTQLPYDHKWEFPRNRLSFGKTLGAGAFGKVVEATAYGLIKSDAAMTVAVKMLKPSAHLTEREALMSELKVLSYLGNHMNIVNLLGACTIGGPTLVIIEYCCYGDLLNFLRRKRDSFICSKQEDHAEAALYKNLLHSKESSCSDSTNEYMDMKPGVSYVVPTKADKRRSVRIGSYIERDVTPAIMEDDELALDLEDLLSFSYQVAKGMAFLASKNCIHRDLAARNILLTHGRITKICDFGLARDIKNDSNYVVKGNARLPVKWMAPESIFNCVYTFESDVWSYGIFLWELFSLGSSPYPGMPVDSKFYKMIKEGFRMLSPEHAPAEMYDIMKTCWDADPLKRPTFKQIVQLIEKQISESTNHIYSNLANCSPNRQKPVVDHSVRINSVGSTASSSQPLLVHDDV
Chain of hERG (KCNH2) (Q12809 whole entry): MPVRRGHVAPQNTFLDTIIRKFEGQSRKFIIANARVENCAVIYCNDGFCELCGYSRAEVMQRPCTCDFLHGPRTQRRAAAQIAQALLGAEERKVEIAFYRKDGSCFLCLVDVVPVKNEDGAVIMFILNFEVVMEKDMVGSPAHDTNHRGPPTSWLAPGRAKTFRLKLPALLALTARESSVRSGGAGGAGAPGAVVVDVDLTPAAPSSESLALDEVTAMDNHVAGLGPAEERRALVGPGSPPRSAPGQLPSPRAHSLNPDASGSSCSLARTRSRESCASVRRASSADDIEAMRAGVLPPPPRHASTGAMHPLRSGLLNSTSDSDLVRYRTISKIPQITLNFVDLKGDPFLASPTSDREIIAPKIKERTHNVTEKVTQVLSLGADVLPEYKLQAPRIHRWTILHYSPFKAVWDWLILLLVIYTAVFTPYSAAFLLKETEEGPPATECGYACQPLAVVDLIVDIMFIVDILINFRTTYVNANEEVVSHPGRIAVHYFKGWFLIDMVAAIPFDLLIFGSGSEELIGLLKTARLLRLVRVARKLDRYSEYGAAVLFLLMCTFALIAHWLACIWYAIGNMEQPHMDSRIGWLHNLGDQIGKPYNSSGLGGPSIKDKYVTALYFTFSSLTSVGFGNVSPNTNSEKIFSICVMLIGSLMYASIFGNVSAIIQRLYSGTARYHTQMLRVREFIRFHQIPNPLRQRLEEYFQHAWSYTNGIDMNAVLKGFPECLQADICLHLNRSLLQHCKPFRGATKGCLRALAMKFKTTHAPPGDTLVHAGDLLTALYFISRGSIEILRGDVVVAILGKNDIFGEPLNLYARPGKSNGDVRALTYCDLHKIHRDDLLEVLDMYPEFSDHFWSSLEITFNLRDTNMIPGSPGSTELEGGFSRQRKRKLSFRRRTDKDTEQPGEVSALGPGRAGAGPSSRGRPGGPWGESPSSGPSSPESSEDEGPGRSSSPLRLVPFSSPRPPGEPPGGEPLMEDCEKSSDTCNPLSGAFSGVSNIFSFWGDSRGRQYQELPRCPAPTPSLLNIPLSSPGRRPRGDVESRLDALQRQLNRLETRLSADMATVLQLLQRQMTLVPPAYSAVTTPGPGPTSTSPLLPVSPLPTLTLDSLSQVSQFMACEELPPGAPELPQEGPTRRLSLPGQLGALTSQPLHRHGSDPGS
Chain of Cytochrome P450 1A2 (P05177 whole entry): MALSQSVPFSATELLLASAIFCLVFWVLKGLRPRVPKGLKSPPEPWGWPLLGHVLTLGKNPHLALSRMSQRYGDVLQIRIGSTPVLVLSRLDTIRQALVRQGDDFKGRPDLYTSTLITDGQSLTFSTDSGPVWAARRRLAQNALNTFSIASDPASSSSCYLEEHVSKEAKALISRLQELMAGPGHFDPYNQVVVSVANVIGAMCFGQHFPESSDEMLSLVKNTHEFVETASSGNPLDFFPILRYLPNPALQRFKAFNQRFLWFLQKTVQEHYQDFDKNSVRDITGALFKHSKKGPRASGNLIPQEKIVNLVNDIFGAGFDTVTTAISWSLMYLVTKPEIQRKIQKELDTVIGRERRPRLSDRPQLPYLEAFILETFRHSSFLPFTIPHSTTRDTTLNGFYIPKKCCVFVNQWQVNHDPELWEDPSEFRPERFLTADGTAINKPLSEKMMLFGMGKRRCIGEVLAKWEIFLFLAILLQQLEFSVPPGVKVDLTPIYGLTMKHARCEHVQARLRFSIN
Chain of Proto-oncogene tyrosine-protein kinase receptor Ret (P07949 29-1114 G691S limits assumed): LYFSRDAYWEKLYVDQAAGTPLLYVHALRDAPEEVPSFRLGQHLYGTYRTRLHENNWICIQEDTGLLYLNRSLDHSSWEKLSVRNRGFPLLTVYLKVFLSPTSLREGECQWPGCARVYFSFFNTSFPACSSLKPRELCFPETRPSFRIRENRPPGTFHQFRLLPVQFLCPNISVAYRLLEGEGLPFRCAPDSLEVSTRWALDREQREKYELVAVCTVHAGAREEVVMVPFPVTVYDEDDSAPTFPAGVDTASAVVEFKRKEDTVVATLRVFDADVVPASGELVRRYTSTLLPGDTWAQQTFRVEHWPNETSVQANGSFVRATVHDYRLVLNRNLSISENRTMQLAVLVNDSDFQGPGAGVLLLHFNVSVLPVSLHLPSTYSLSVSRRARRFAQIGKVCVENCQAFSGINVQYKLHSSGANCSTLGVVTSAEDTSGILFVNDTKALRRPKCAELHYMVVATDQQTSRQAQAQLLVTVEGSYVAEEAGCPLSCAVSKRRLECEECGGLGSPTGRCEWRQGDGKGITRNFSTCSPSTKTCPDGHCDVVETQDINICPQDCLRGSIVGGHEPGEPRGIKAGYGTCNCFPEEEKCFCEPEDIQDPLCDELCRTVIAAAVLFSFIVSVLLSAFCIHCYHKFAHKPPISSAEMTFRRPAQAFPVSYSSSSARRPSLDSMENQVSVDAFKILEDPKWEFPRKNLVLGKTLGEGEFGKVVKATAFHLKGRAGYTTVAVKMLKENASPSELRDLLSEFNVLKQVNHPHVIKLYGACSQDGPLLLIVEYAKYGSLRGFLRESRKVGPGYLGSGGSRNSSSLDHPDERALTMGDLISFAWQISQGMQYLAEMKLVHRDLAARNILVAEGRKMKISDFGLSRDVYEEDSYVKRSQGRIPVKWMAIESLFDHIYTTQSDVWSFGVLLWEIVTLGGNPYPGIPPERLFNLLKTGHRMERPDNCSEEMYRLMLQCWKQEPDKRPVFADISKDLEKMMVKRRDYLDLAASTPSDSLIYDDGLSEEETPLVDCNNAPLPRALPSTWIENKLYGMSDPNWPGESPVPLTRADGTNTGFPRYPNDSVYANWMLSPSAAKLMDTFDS

Compound: CC(C)(C)c1cc(NC(=O)Nc2ccc(C#Cc3ccc(OCCCN4CCOCC4)cc3)cc2)no1
- Cmax [1]: 1410 ng/mL
- Vd [2]: 5.08 L/kg
- AUC(0-t) at 24 h [3]: 908 ng·h/mL
- Cmax [4]: 1660 ng/mL
- IC50 [5]: > 33300 nM
- Tmax [6]: 4.98 min
- inhibition [7]: Dose-dependent-effect
- Tmax [8]: 4.98 min
- half-life [9]: 8.94 h
- half-life [10]: 1.73 h
- Activity [11]: 100%
- IC50 [12]: 1 nM
- IC50 [13]: 6.9 nM
- IC50 [14]: 283 nM
- inhibition at 30 µM [15]: 22.8%
- IC50 [16]: > 10000 nM
- half-life at 24 h [17]: 3.34 h
- half-life [18]: 1.17 h
- Activity [19]: Dose-dependent-effect
- AUC(0-t) at 24 h [20]: 4380 ng·h/mL
- inhibition [21]: Dose-dependent-effect
- IC50 [22]: 302 nM
- IC50 [23]: 439 nM
- IC50 [24]: > 10000 nM
- CL/F [25]: 6.67 mL/min/kg
- Vd [26]: 1.36 L/kg
- Cmax [27]: 895 ng/mL
- bioavailability [28]: 71.9%
- IC50 [29]: > 10000 nM
- IC50 [30]: 74.7 nM
- AUC(0-t) at 24 h [31]: 1470 ng·h/mL
- Tmax at 24 h [32]: 6 h
- IC50 [33]: > 10000 nM
- inhibition [34]: inactive
- IC50 [35]: 2.9 nM
- AUC(0-t) at 24 h [36]: 1740 ng·h/mL
- Cmax [37]: 199 ng/mL
- IC50 [38]: > 10000 nM
- Cmax at 24 h [39]: 91.9 ng/mL
- IC50 [40]: 7200 nM
- AUClast [41]: 10800 ng·h/mL
